Experimental data taken from article PMC10457016 (Journal of fluorine chemistry, 2023).
Converted amounts (≈) assume the structure as drawn. Where two headings read alike, the source gives them in different places.

Experiments:
[1] = target: T1, human sEH (Homo sapiens, UniProt P34913); test: Determination of inhibitory potency; assay type: biochemical
T1 sequence (P34913 1-555): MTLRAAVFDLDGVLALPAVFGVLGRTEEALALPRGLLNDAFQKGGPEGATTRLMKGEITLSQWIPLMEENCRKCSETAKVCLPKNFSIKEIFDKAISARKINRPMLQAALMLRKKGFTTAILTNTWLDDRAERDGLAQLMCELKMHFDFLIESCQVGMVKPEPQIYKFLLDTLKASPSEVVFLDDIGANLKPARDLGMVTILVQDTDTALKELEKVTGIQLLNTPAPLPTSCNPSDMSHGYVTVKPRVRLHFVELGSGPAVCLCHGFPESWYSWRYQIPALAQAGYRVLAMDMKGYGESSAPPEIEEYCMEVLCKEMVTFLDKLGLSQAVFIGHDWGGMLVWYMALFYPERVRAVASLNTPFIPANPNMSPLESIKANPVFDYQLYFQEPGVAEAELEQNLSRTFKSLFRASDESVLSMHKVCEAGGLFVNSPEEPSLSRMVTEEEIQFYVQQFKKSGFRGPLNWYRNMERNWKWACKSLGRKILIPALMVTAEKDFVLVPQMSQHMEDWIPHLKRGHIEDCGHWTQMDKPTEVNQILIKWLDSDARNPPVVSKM

[2] = Solubility in sodium phosphate buffer; assay type: physicochemical
[3] = kinetic fluorescent assay, substrate 5 μM, human sEH 1 nM, means of three separate experiments
[4] = sodium phosphate buffer (pH 7.4, 0.1 M) containing 1% of DMSO
[5] = sodium phosphate buffer, pH 7.4, aqueous buffer

SMILES | IC50 [1, 3] | Solubility [2, 4] | IC50 [1] | Solubility [2, 5]
O=C(NCc1ccn(CCF)n1)NC12CC3CC(CC(C3)C1)C2 [3a, 1-Adamantyl-3-{[1-(2-fluoroethyl)-1H-pyrazol-3-yl]methyl}urea] | 10.2 nM | 440 to 450 µM |  | 
O=C(NCc1ccn(CC(F)F)n1)NC12CC3CC(CC(C3)C1)C2 [3b, 1-Adamantyl-3-{[1-(2,2-difluoroethyl)-1H-pyrazol-3-yl]methyl}urea] | 12 nM | 300 to 310 µM |  | 
O=C(NCc1ccn(CC(F)(F)F)n1)NC12CC3CC(CC(C3)C1)C2 [3c, 1-Adamantyl-3-{[1-(2,2,2-trifluoroethyl)-1H-pyrazol-3-yl]methyl}urea] | 9.6 nM | 390 to 400 µM |  | 
O=C(NCc1ccn(C(F)F)n1)NC12CC3CC(CC(C3)C1)C2 [3d, 1-Adamantyl-3-[(1-difluoromethyl-1H-pyrazol-3-yl)methyl]urea] | 8.8 nM | 670 to 680 µM |  | 
Cn1nc(CNC(=O)NC23CC4CC(CC(C4)C2)C3)cc1C(F)(F)F [3e, 1-Adamantyl-3-[(1-metyl-5-trifluoromethyl-1H-pyrazol-3-yl)methyl]urea] | 9.9 nM | 160 to 170 µM |  | 
Cn1nc(CNC(=O)NC23CC4CC(CC(C4)C2)C3)c(Cl)c1Cl [3f, 1-Adamantyl-3-[(4,5-dichloro-1-methyl-1H-pyrazol-3-yl)methyl]urea] | 0.8 nM | 250 to 260 µM |  | 
O=C(NCc1ccn(CCF)n1)NCC12CC3CC(CC(C3)C1)C2 [4a, 1-[(Adamantan-1-yl)methyl]-3-{[1-(2-fluoroethyl)-1H-pyrazol-3-yl]methyl}urea] |  |  | 13.8 nM | 650 to 660 µM (≈ 217 to 221 µg/mL)
O=C(NCc1ccn(CC(F)F)n1)NCC12CC3CC(CC(C3)C1)C2 [4b, 1-[(Adamantan-1-yl)methyl]-3-{[1-(2,2-difluoroethyl)-1H-pyrazol-3-yl]methyl}urea] |  |  | 27.5 nM | 270 to 280 µM (≈ 95.2 to 98.7 µg/mL)
O=C(NCc1ccn(CC(F)(F)F)n1)NCC12CC3CC(CC(C3)C1)C2 [4c, 1-[(Adamantan-1-yl)methyl]-3-{[1-(2,2,2-trifluoroethyl)-1H-pyrazol-3-yl]methyl}urea] |  |  | 7.3 nM | 740 to 750 µM (≈ 274 to 278 µg/mL)
O=C(NCc1ccn(C(F)F)n1)NCC12CC3CC(CC(C3)C1)C2 [4d, 1-[(Adamantan-1-yl)methyl]-3-[(1-difluoromethyl-1H-pyrazol-3-yl)methyl]urea] |  |  | 15 nM | 570 to 580 µM (≈ 193 to 196 µg/mL)
Cn1nc(CNC(=O)NCC23CC4CC(CC(C4)C2)C3)cc1C(F)(F)F [4e, 1-[(Adamantan-1-yl)methyl]-3-[(1-metyl-5-trifluoromethyl-1H-pyrazol-3-yl)methyl]urea] | 22.5 nM | 160 to 170 µM |  | 
Cn1nc(CNC(=O)NCC23CC4CC(CC(C4)C2)C3)c(Cl)c1Cl [4f, 1-[(Adamantan-1-yl)methyl]-3-[(4,5-dichloro-1-methyl-1H-pyrazol-3-yl)methyl]urea] |  |  | 1.2 nM | 120 to 130 µM (≈ 44.6 to 48.3 µg/mL)
